According to patent US20160228452A1, “TREATMENT OF METABOLIC DISEASES BY INHIBTION OF HTR2A OR HTR3” (Korea Advanced Institute of Science and Technology, priority 2014, published 2016):
“Also recorded” adds a separate entry of the source.

Columns and labels:
[1] = Blood chemistry analysis (serum cholesterol, LDL cholesterol, FFA, leptin by ELISA); assay type: in vivo; settings: PCPA 300 mg/kg, 6 weeks, HFD-fed mice vs HFD-fed control
Method: Tissue serotonin was extracted by homogenization in extraction buffer containing 0.02% ascorbic acid in 0.1 M perchloric acid followed by centrifugation. The serotonin levels in the supernatants were measured via the liquid chromatography-mass spectrometry method. Serum leptin (Enzo Life Science, Farmingdale, N.Y., USA), LDL-cholesterol (Waco), and FFA (Biovision, Mountain View, Calif., USA) were measured using enzyme-linked immunosorbent assay (ELISA) kits.

eWAT, iWAT and BAT = assay: Histological analysis of adipose tissues (H&E, Ucp1/Plin1 immunohistochemistry, TEM); assay type: in vivo, mice
Method: Inguinal, epididymal and interscapular adipose tissues were harvested, fixed in 4% (w/v) paraformaldehyde in PBS and embedded in paraffin. Then, 5-μm-thick tissue sections were deparaffinized, rehydrated and used for hematoxylin and eosin (H&E) staining, immunohistochemistry and immunofluorescence. For antigen retrieval, the slides were submerged in 10 mM sodium citrate (pH 6.0) and heated to 95° C. for 20 minutes. Visualization of Ucp1 and Plin1 was performed using a VECTASTAIN ABC Kit (PK-4001, Vector Laboratories, Burlingame, Calif., USA) according to the manufacturer's instructions. Briefly, the slides were incubated with BLOXALL Blocking solution (SP-6000, Vector Laboratories) followed by incubation with 2% normal goat serum for 30 min at room temperature to block non-specific binding. Sections were incubated with primary antibody against Ucp1 (ab10983, Abcam) or Plin1 (ab3526, Abcam) for 1 h at room temperature followed by 30-min incubation with a species-specific, biotinylated secondary antibody. The slides were incubated with Vectastain ABC-AP reagent for 30 min and then incubated with […] substrate (DAB, SK-4100, Vector Laboratories) for visualization. The stains and antibodies used for the immunofluorescence staining included BODIPY (BODIPY®493/503, Invitrogen), anti-5HT (ab10385, Abcam) and DAPI (D9542, Sigma). Electron microscopy images of BAT were obtained by transmission electron microscopy (Tecnai Spirit TEM) as previously described^35. Briefly, the BAT was first fixed with 2.5% glutaraldehyde, and after fixation, ultra-thin sections were cut, stained with uranyl acetate and lead citrate and then examined under an electron microscope.

[2] = High-fat-diet-induced obesity in mice: growth curves, body weight and eWAT mass; assay type: in vivo; settings: PCPA 300 mg/kg daily i.p., 10 weeks, HFD-fed mice vs HFD-fed control
From the text: The generation of Tph^flox/flox mice, Adipoq-cre mice, and aP2-CreERT2 mice has previously been reported^17,30,31. C57BL/6J mice, Htr3a-targeted KO mice (B6.129X1-Htr3a^tm1jul/J, Htr3a KO) and leptin-deficient ob/ob mice (B6.V-Lep^ob/J) were purchased from the Jackson Laboratory (Bar Harbor, Me., USA). To create the adipose tissue-specific Tph1 KO mice, Tph1^flox/flox mice were crossed with Adipoq-Cre mice (Tph1 FKO mice) and aP2-CreERT2 mice (Tph1 AFKO mice). The mice were housed in climate-controlled, specific pathogen-free (SPF) barrier facilities under a 12-h light-dark cycle, and chow and water were provided ad libitum. The Institutional Animal Care and Use Committee at the Korea Advanced Institute of Science and Technology approved the experimental protocols for this study. Htr3a KO mice and Tph1^flox/flox mice were backcrossed with C57BL/6J mice for more than 10 generations. Cre-recombination of 6-week-old Tph1 AFKO mice was induced by intraperitoneal (IP) injection of 5 doses of 2 mg of tamoxifen (Sigma) for 1 week. We fed male mice (aged 8˜10 weeks) either on SCD (standard chow diet; 12% fat calories, Purina Laboratory Rodent Diets 38057) or HFD (60% fat calories, Research Diets D12492). PBS or 300 mg/kg PCPA was administered as a daily intraperitoneal injection. LP-533401 was dissolved in PEG-400 and 5% dextrose (40:60 ratio). Vehicle or 30 mg/kg LP-533401 was administered daily with a feeding needle. We randomly divided C57BL/6J mice into 2-4 groups. For transgenic mice, we compared data between KO mice and their WT littermates. No blinding was done.

BAT = assay: 18F-FDG PET/CT glucose utilization of BAT; assay type: in vivo; settings: PCPA-treated HFD-fed mice vs HFD-fed control
Method: (§1) To measure the metabolic rate, the mice were housed individually in an eight-chamber, open-circuit Oxymax/CLAMS (Columbus Instruments Comprehensive Lab Animal Monitoring System) system as previously described^33. Each mouse was assessed for 72 h in the fed state to determine their metabolic rates. PET imaging was performed using a microPET R4 scanner (Concorde Microsystems, Siemens) as previously described^34.

[3] = intraventricular injection, reference 19; cited from earlier work
[4] = tested on: genes involved in lipid metabolism and thermogenesis; assay: Real-time RT-PCR of mouse adipose tissues; assay type: in vivo, mice
Method: Total RNA was extracted from the mouse tissues or cell lines using TRIzol reagent (Invitrogen) according to the manufacturer's protocol. After TURBO DNase (Invitrogen) treatment, 2 μg of total RNA was used to generate complementary DNA with Superscript III reverse transcriptase (Invitrogen). To analyze gene expression, real-time PCR was performed with a ViiA 7 Real-Time PCR system (Applied Biosystems) and the Power SYBR Green PCR master mix (Applied Biosystems). Relative quantification was based on the ddCt method, and ActB was used as an endogenous control (internal control).

[5] = Metabolic analysis by indirect calorimetry (Oxymax/CLAMS); assay type: in vivo, mice
Method: as §1

[6] = Glucose tolerance test and insulin tolerance test; assay type: in vivo, mice; settings: PCPA-treated HFD-fed mice vs HFD-fed control
Method: For the glucose tolerance tests, the mice were administered 2 g/kg D-glucose in PBS after overnight fasting. For the insulin tolerance tests, the mice were intraperitoneally injected with insulin (0.75 U/kg) after being fasted for 4 h. The blood glucose levels in blood samples obtained from tail veins 0, 15, 30, 45, 60, 90 and 120 min after injection were measured using a Gluco DR Plus glucometer (Allmedicus).

[7] = PCPA-treated vs control mice, HFD for 6 weeks

SMILES: N[C@@H](Cc1ccc(Cl)cc1)C(=O)O (racemic) [PCPA, p-chlorophenylalanine]
- blood level of LDL cholesterol [1]: decreased
- blood level of free fatty acid (FFA) [1]: decreased; also recorded: reduced
- blood level of leptin [1]: decreased; also recorded: reduced
- serum cholesterol [1]: reduced
- iWAT adipocyte size, HFD vs SCD within PCPA-treated mice (eWAT, iWAT and BAT; 18-week-old PCPA-treated mice, HFD for 10 weeks compared with PCPA-treated mice fed an SCD): decreased adipocyte size
- number and size of mitochondria in BAT (TEM) (eWAT, iWAT and BAT; HFD-fed mice with PCPA treatment for 6 weeks): increased size and number of mitochondria
- eWAT cellular structure / cell damage (Plin1 staining) (eWAT, iWAT and BAT; PCPA 300 mg/kg for 6 weeks, SCD or HFD): normal cellular structures; also recorded: No gross cell damage was observed
- browning of iWAT (Ucp1-expressing multilocular cells) (eWAT, iWAT and BAT; PCPA-treated mice): brown adipocyte-like multilocular cells that expressed Ucp1 were observed
- density of the cristae in BAT mitochondria (eWAT, iWAT and BAT; PCPA-treated mice): increased
- iWAT adipocyte size (eWAT, iWAT and BAT; PCPA-treated mice): decreased
- multilocular adipocytes in BAT (eWAT, iWAT and BAT; PCPA-treated mice, HFD): increased multilocular adipocytes
- BAT lipid droplet size (eWAT, iWAT and BAT; PCPA-treated vs control BAT, regardless of diet): decreased lipid droplet sizes
- eWAT adipocyte size (eWAT, iWAT and BAT; PCPA-treated vs control mice, SCD or HFD): decreased adipocyte size; also recorded: did not increase the adipocyte size
- body weight gain [2]: decreased weight gain; also recorded: reduction in body weight gain
- eWAT mass [2]: reduced eWAT mass; also recorded: decreased eWAT
- glucose (18F-FDG) uptake into BAT (BAT): significantly increased glucose uptake
- appetite [3]: reduce appetite
- body weight [3]: increase body weight
- Dio2 mRNA level in BAT ([4]; PCPA 300 mg/kg, 6 weeks): highest increase
- thermogenic gene expression in BAT ([4]; PCPA 300 mg/kg, 6 weeks): increased thermogenic gene expression
- Dio2 mRNA level in iWAT ([4]; PCPA-treated mice fed an HFD): increased
- Ucp1 mRNA level in iWAT ([4]; PCPA-treated mice fed an HFD): increased
- expression of lipogenic (triglyceride storage) genes in eWAT ([4]; PCPA-treated vs control mice, both SCD and HFD): suppressed expression
- metabolic rates (metabolic cage data) on standard chow diet ([5]; PCPA 300 mg/kg for 6 weeks vs vehicle, SCD-fed mice): did not affect the metabolic rates; also recorded: no significant differences
- O2 consumption [5, 7]: increased
- carbon dioxide production (VCO2) [5, 7]: increased carbon dioxide production
- energy expenditure [5, 7]: increased energy expenditure
- heat production [5, 7]: increased
- glucose tolerance ([6]; 2 g/kg glucose after overnight fasting): improved glucose tolerance
- insulin sensitivity / insulin resistance ([6]; insulin 0.75 U/kg after 4 h fasting): improved; also recorded: reduced insulin resistance
